Read-outs that look alike come from different tables or passages of the source. Where a SMILES comes first, the peptide text is derived from it.
Legend:
[1] = cited from earlier work; for αpKa /° C.: change of pKa per ° C.
[2] = ADA: data of Schwarzenbach et al. (1955); cited from earlier work
[3] = ADA: data of Schwarzenbach et al. (1955); cited from earlier work; remark: listed apart in the source
[4] = ADA: data of Schwarzenbach et al. (1955); cited from earlier work; remark: listed apart in the source
[5] = ADA: data of Schwarzenbach et al. (1955); cited from earlier work; remark: listed apart in the source
[6] = cited from earlier work
[7] = tested on: giant platelets and histiocytes; assay: Giant platelets and histiocytes on peripheral smear; assay type: in vivo, animals; settings: blood / peripheral smear
From the text: (§1) The amphoteric zwitterion compounds may be employed as active ingredients with other active ingredients, as well as other components and carriers typically used in pharmaceutical compositions; such as, but not limited to: buffers, stabilizers, dyes, antioxidants, dispersing agents, fillers, surfactants, silicones, bulking agents, pigments, salts, human or animal (natural or synthetic) cells and cellular components, antibiotics, drugs, vitamins, amino acids, proteins, serum and various other compounds and combinations thereof in varying amounts.

cancer tumors = assay: Macrophage infiltration of tumors; assay type: in vivo, dogs; settings: dogs
From the text: as §1

[8] = as the hydrochloride (footnote b)

Compound | pKa at 20° [1] | Metal-Buffer Binding Constants Log KM, Ca^2+ [2] | Metal-Buffer Binding Constants Log KM, Cu^2+ [3] | Metal-Buffer Binding Constants Log KM, Mg^2+ [4] | Metal-Buffer Binding Constants Log KM, Mn^2+ [5] | Saturated Solution at 0° [6] [M] | giant platelets and histiocytes [7] | macrophage infiltration of cancer tumors (cancer tumors) | Saturated Solution at 0° [6, 8] [M] | αpKa /° C. [1]
O=S(=O)(O)CCN(CCO)CCO [BES] | 7.15 | Negl | 3.5 | Negl | Negl |  |  |  |  | 
NC(CO)(CO)CO [Tris] |  | Negl |  | Negl | Negl | 2.4 |  |  |  | 
O=S(=O)(O)CCN1CCN(CCS(=O)(=O)O)CC1 [PIPES] |  | Negl | Negl | Negl | Negl |  | production of giant platelets and histiocytes | macrophage infiltration of cancer tumors in dogs |  | 
NC(=O)CN(CC(=O)O)CC(=O)O [ADA] | 6.6 | 4.0 | 9.7 | 2.5 | 4.9 |  |  |  |  | 
NC(=O)CNCC(=O)O [Acetamidoglycine, Acetamido-glycine] | ~7.7 |  |  |  |  |  |  |  |  | 
O=S(=O)(O)CCN1CCOCC1 [MES] |  |  | Negl |  |  |  |  |  |  | 
NCC(N)=O [Glycinamide] | 8.2 |  |  |  |  |  |  |  | 4.6 | -0.029
O=C(O)CN(CCO)CCO [Bicine] |  | 2.8 |  | 1.5 |  |  |  |  |  | -0.018
C[N+](C)(C)CCN [Cholamine chloride] | 7.1 | Negl | Negl | Negl | Negl |  |  |  | 4.2 | -0.027
O=C(O)CNC(CO)(CO)CO [Tricine] |  | 2.4 | 7.3 | 1.2 |  | 0.8 |  |  |  | 
NCC(=O)NCC(=O)O [Glycylglycine] (H-Gly-Gly-OH) | 8.4 |  | 5.8 |  | 1.7 |  |  |  |  | 
NC(=O)CNCCS(=O)(=O)O [ACES] | 6.9 |  | 4.6 |  | Negl | 0.22 |  |  |  | -0.020
O=S(=O)(O)CCNC(CO)(CO)CO [TES] | 7.5 | Negl | 3.2 | Negl | Negl | 2.6 |  |  |  | 
